This assay has as its system male Sprague-Dawley rats. Put plainly: Carrageenan model of inflammatory pain, paw-pressure vocalization test (Randall-Selitto). It counts as in vivo, rat. The method, then:
In order to show the efficacy of the gas mixture according to the invention in the prevention of post-traumatic hyperalgesia, a model of inflammatory pain was used in rats, namely male Sprague-Dawley rats, in the context of preclinical studies.
An inflammatory product, carrageenan (0.2 ml of saline solution with 1% of carrageenan), was injected subcutaneously into the sole of the hind paw of a rat.
Two xenon concentrations by volume were tested, namely: • a ternary gas mixture made up of 25% Xe+25% N2+50% O2, and • a binary gas mixture made up of 50% Xe+50% O2.
The nociceptive threshold, i.e. the pain threshold, was evaluated using the paw-pressure vocalization test (Randall-Selitto), in which increasing pressures (measured in grams) are applied to the hind paw of the rat until the rat squeaks.
More specifically, on Day 0 (D0), the inflammatory product, i.e. the carrageenan (Car), was injected into a hind paw of the rats.
The exposure of the rats to the gases by inhalation begins 1 h 45 after the injection of Car and lasts for 1 h 45. The nociceptive threshold is evaluated 1 h 30, 2 h 30, 3 h 00, 3 h 30 and 4 h 30 after the injection of Car and then once a day until a return to the basal nociceptive threshold.
On the technique in general: The carrageenan paw model is a standard test of acute inflammation.

“Also recorded” adds a separate entry of the source.

Take `[Xe]` [xenon]: the “analgesic effect during administration, 50% content compared with 25% content” value (50% Xe+50% O2 (FIG. 2A) versus 25% Xe+25% N2+50% O2 (FIG. 1A), inflamed paw) is “more effective”. Moreover, the “analgesic effect during administration (nociceptive threshold)” value (inhaled xenon 25% or 50% by volume, exposure 1 h 45 starting 1 h 45 after carrageenan, inflamed paw) is “has an analgesic effect”. In addition, the “duration of delayed hyperalgesia on the inflamed paw” value (xenon at 25% (25% Xe+25% N2+50% O2) inhaled 1 h 45, control air/Car 4 days, FIG. 1A) amounted to 2 days. Besides, the “delayed hyperalgesia on the inflamed paw” value (xenon at 50% (50% Xe+50% O2) inhaled 1 h 45, FIG. 2A) was “totally prevents”. Also, under “xenon at 50% (50% Xe+50% O2) inhaled 1 h 45, FIG. 2B”, the “delayed hyperalgesia on the non-inflamed paw” value is on record as “totally prevents; also recorded: completely prevents”.

The values are drawn from patent publication US8632821B2, “Use of xenon for treating hypersensitivity to pain” (L'Air Liquide, Société Anonyme pour l'Etude et …, priority 2009, dated 2014).
